The results in this text go back to US6890727B2, “Diagnostic assay for Alzheimer's disease: assessment of Aβ abnormalities” (The General Hospital Corporation, priority 1994, dated 2005).

Entries after “also recorded” stand apart in the source; their conditions may differ.

Data set [1] deals with T1, human Aβ1-40 (Homo sapiens, UniProt P05067).
T1 construct: made in house; host or cells: chemical synthesis (solid-phase Fmoc)
As to the kind of experiment: Human Aβ1-40 aggregation (0.2μ filtration) after incubation with various metal ions. The format is physicochemical. To be noted: metal ions 3 μM, equimolar basis, peptide 1.6 μM. An excerpt:
The atomic number of the metal species is indicated. […] Data points are in duplicate.

Data set [2] deals with T2, Aβ (Homo sapiens, UniProt P05067).
T2 construct: purchased Sigma; Bachem (results also replicated with peptide from the Keck Laboratory, Yale); host or cells: chemical synthesis
As to the kind of experiment: SDS Tris/Tricine gel electrophoresis of Aβ incubated with Zn2+. To be noted: Zn^2+ 200 μM, 1-24 h, 20° C. The protocol:
To further test whether zinc induces irreversible precipitation of Aβ in the absence of kaolin, Aβ incubated with Zn^2+ (200 μM, 1-24 h, 20° C.) was subjected to SDS Tris/Tricine gel electrophoresis.

Data set [3] is described as follows: 65Zn2+ binding to immobilized peptide (dot-blot, Scatchard competition analysis). To be noted: unlabeled metal ions 50 μM total. The protocol:
^65Zn^2+ Binding Studies—Dissolved peptides (1.2 nMol, unless other wise stated) were dot-blotted onto polyvinylidene difluoride membrane (0.2-μm pore size; Pierce Chemical Co.), washed twice with chelating buffer (200 μl×100 mM NaCl, 20 mM Tris-HCl, 1 mM EDTA, pH 7.4), then five times with blocking buffer (200 μl×100 mM NaCl, 20 mM Tris-HCl, 1 mM MnCl2, pH 7.4), and then incubated (60 min, 20° C.) with ^65Zn (unless otherwise stated 130,000 cpm, […] ^65ZnCl2 in 200 μl of blocking buffer±competing metal ion chloride). The dot-blot was then washed with blocking buffer (5×200 μl), the dot excised, placed in a test tube, and assayed by γ-counting (11% efficiency). The equilibration volume for stoichiometry estimates was regarded as 6×200 μl. The 214 nm UV absorbance of the unbound flow-through was assayed to determine the total amount of peptide remaining bound onto the membrane. […] To alter the pH, the ^65Zn incubation was carried out in the presence of 100 mM buffer: MOPS (pH 6.5-7.0), MES (pH 5.0-6.0), acetate (pH 3.5-4.5). The dot-blot apparatus was washed with detergent and EDTA (50 mM) then rinsed and siliconized between use.
Aliquots of Aβ were incubated (60 min) with ^65Zn^2+ in the presence of varying concentrations of unlabeled Zn^2+ (0.01-50 μM total). Values shown are means±S.D., n≧3. […] (FIG. 1b) depicts specificity of the Zn^2+ binding site for various metals. Aβ was incubated (60 min) with ^65 Zn^2+ (157 nM, 138,000 cpm) and competing unlabeled metal ions (50 μM total). […] Percent binding of total counts ^65Zn^2+/min added is corrected for the amounts (in nanomoles) of peptides adhering to the membrane. […] 157 nM ^65Zn (138,000 cpm) is used in this experiment to probe immobilized peptide (1.6 nmol).

A short description of data set [4]: Clinical study of oral zinc supplementation: cognition and plasma APP levels. The format is in vivo, human. The protocol:
The cerebral cortex, and especially the hippocampus, contains the highest concentrations of zinc in the body (C. J. Frederickson, M. A. Klitenick, W. I. Manton, J. B. Kirkpatrick, Brain Res. 273:335 (1983)), and is exposed to extreme fluctuations of extracellular zinc levels (0.15 to 300 μM, C. J. Frederickson, Int. Rev. Neurobiol. 31:145 (1989)), e.g. during synaptic transmission (S. Y. Assaf and S.-H. Chung, Nature 308:734 (1984); G. A. Howell, M. G. Welch, C. J. Frederickson, Nature 308:736 (1984)). The cortical vasculature contains an intraluminal zinc concentration of 20 μM (I. J. T. Davies, M. Musa, T. L. Dormandy, J. Clin. Pathol. 21:359 (1968)), but the perivascular interstitial zinc concentration is 0.15/μM (C. J. Frederickson, Int. Rev. Neurobiol. 31:145 (1989)). Both sites of high zinc concentration gradients are severely and consistently affected by the pathological lesions of AD (B. T. Hyman, G. W. Van Hoesen, L. J. Kroner, A. R. Damasio, Ann. Neurol. 20:472 (1986); G. G. Glenner and C. W. Wong, Biochem. Biophys. Res. Commun. 120:885 (1984)). […] Additional evidence for altered cerebral zinc metabolism in AD include decreased temporal lobe zinc levels (D. Wenstrup, W. D. Ehmann, W. R. Markesbery, Brain Res. 533:125 (1990); J. Constantinidis, Encephale 16:231 (1990); F. M. Corrigan, G. P. Reynolds, N. I. Ward, Biometals 6:149 (1993)), elevated (80%) CSF levels (C. O. Hershey et al, Neurology 33:1350 (1983)), an increase in extracellular Zn^2+-metalloproteinase activities in AD hippocampus (J. R. Backstrom, C. A. Miller, Z. A. Tökés, J. Neurochem. 58:983 (1992)), and decreased levels of astrocytic growth-inhibitory factor, a metallothionein-like protein which chelates zinc (Y. Uchida, K. Takio, K. Titani, Y. Ihara, M. Tomonaga, Neuron 7:337 (1991)). Recently, a clinical study assayed the effects of oral zinc supplementation (6.7-fold the recommended daily allowance, a dose commonly found in nutritional supplements) upon cognition and plasma APP levels in AD subjects and age-matched controls. […]

T2 sequence (P05067 672-711): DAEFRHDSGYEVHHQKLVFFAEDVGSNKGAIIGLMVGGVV
T1 sequence (P05067 672-711): as above

As to `[Zn+2]` [Zn^2+, zinc], in data set [1], the “induction of aggregation of human Aβ1-40 among metal ions tested” value is “induce significant aggregation”. The “covalent or SDS-resistant polymerization of Aβ” value in data set [2] is recorded as “does not induce covalent or SDS-resistant polymerization”. In data set [3], the “competition of unlabeled metal ion with ^65Zn^2+ for Aβ” value is recorded as “capable of competing off the label”. For the same compound, the “drop in Mini-Mental State Examination scores” value in data set [4] (AD group, after four days of oral zinc supplementation) turned out to be 31%. For the same compound, the “effect on cognition in AD subjects” value in data set [4] (oral, 6.7-fold the recommended daily allowance) is given as “acute decline in cognition; also recorded: acutely adverse effect on cognition”. Moreover, the “effect on age-matched control subjects” value in data set [4] (same conditions) is reported as “remained unaffected”.
